Data reported in patent US20110112135A1, “Imidazo [1,2-A] Pyridine Compounds” (priority 2007, published 2011).

Assays:
human LXRβ = target: T1, human LXRβ (Homo sapiens, UniProt P55055); assay: Ligand-binding test procedure for human LXRβ (3H T0901317 tracer, flash plates); conditions: biotinylated hLXRβ from E. coli extract; tracer 3H T0901317
T1 construct: biotin (biotinylated); made in house; host or cells: E. coli (crude extract)
T1 sequence (P55055 1-460): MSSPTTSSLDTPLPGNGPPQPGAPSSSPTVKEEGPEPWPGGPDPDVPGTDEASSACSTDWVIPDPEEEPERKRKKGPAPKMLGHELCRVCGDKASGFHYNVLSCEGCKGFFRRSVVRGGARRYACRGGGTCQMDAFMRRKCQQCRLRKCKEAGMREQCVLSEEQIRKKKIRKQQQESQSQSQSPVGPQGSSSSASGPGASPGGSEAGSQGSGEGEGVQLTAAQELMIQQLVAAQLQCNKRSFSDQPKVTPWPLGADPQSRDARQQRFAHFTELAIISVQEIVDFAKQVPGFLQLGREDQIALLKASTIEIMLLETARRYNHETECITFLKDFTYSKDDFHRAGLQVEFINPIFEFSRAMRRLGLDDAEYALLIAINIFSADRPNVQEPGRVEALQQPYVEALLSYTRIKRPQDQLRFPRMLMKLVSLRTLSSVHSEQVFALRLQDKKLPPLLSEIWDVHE
Method: I. Ligand-Binding Test Procedure for Human LXRβ.
Receptor source: E. coli extract from cells expressing biotinylated hLXRβ. Extract was made in a similar buffer as above, but with 50 mM TRIS.
(§1) Washed streptavidin and coated flash plates with wash buffer. Diluted receptor extract to give Bmax ˜4000 cpm and add to the wells. Wrapped the plates in aluminum foil and stored them at +4° C. over night.
(§2) Made a dilution series in DMSO of the test ligands. Made a 5 nM solution of the radioactive tracer in buffer. Mixed 250 μl diluted tracer with 5 μl of the test ligand from each concentration of the dilution series. Washed the receptor-coated flash plates. Added 200 μl per well of the ligand/radiolabel mixture to the receptor-coated flash plates. Wrapped the plates in aluminum foil and incubate at +4° C. over night.
(§3) Aspirated wells, and wash the flashed plates. Sealed the plate. Measured the remaining radioactivity in the plate.

human LXRα = target: T2, human LXRα (Homo sapiens, UniProt Q13133); assay: Ligand-binding test procedure for human LXRα (3H T0901317 tracer, flash plates); conditions: biotinylated hLXRα from E. coli extract; tracer 3H T0901317
T2 construct: biotin (biotinylated); made in house; host or cells: E. coli (crude extract)
T2 sequence (Q13133 1-447): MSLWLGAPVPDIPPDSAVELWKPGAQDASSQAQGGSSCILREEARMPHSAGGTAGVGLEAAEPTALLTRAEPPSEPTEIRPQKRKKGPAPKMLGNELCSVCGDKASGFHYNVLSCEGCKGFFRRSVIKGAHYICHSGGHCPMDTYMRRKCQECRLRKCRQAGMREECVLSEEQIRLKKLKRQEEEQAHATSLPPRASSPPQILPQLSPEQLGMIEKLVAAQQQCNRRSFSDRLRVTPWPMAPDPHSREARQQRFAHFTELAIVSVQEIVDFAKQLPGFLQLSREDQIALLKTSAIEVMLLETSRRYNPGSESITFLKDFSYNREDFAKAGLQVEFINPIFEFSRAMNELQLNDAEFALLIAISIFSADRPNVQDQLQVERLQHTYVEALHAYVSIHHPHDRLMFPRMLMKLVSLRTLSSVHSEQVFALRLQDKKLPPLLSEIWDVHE
Method: II. Ligand-Binding Test Procedure for Human LXRα.
Receptor source: E. coli extract from cells expressing biotinylated hLXRα. Extract was made in a similar buffer as above, but with 50 mM TRIS.
as §1, §2, §3

## CCc1nc2c(C#N)cccn2c1-c1cccc(OCc2cccc(S(C)(=O)=O)c2)c1 [Example 54, 2-ethyl-3-(3-{[3-(methylsulfonyl)benzyl]oxy}phenyl)imidazo[1,2-a]pyridine-8-carbonitrile]
Human LXRβ
  IC50: 3060 nM
Human LXRα
  IC50: 41100 nM

## CC(C)c1nc2c(C#N)cccn2c1-c1cccc(OCc2cccc(S(C)(=O)=O)c2)c1 [Example 55, 2-isopropyl-3-(3-{[3-(methylsulfonyl)benzyl]oxy}phenyl)imidazo[1,2-a]pyridine-8-carbonitrile]
Human LXRβ
  IC50: 1100 nM
Human LXRα
  IC50: 28500 nM

## CC(C)c1nc2c(C(F)(F)F)cccn2c1-c1cccc(OCc2ccc(S(C)(=O)=O)cc2)c1 [Example 56, 2-isopropyl-3-(3-{[4-(methylsulfonyl)benzyl]oxy}phenyl)-8-(trifluoromethyl)imidazo[1,2-a]pyridine]
Human LXRβ
  IC50: 4190 nM
Human LXRα
  IC50: 36500 nM

## CC(C)c1nc2c(Cl)cccn2c1-c1cccc(OCc2ccc(S(C)(=O)=O)cc2)c1 [Example 57, 8-chloro-2-isopropyl-3-(3-{[4-(methylsulfonyl)benzyl]oxy}phenyl)imidazo[1,2-a]pyridine]
Human LXRβ
  IC50: 8430 nM
Human LXRα
  IC50: > 1000 nM

## CCc1nc2c(C#N)cccn2c1-c1cccc(OCc2ccc(S(C)(=O)=O)cc2)c1 [Example 58, 2-ethyl-3-(3-{[4-(methylsulfonyl)benzyl]oxy}phenyl)imidazo[1,2-a]pyridine-8-carbonitrile]
Human LXRβ
  IC50: > 1000 nM
Human LXRα
  IC50: > 1000 nM

## CC(C)c1nc2c(C#N)cccn2c1-c1cccc(OCc2ccc(S(C)(=O)=O)cc2)c1 [Example 59, 2-isopropyl-3-(3-{[4-(methylsulfonyl)benzyl]oxy}phenyl)imidazo[1,2-a]pyridine-8-carbonitrile]
Human LXRβ
  IC50: > 1000 nM
Human LXRα
  IC50: > 1000 nM

## CNCCCS(=O)(=O)c1cccc(Oc2cccc(-c3c(C(C)C)nc4c(C(F)(F)F)cccn34)c2)c1 [Example 62, 3-[(3-{3-[2-isopropyl-8-(trifluoromethyl)imidazo[1,2-a]pyridin-3-yl]phenoxy}phenyl)sulfonyl]-N-methylpropan-1-amine]
Human LXRβ
  IC50: 91.5 nM
Human LXRα
  IC50: 2810 nM

## CCc1nc2c(C#N)cccn2c1-c1cccc(Oc2cccc(S(C)(=O)=O)c2)c1 [Example 69, 2-ethyl-3-{3-[3-(methylsulfonyl)phenoxy]phenyl}imidazo[1,2-a]pyridine-8-carbonitrile]
Human LXRβ
  IC50: 161 nM
Human LXRα
  IC50: 2700 nM

## CCS(=O)(=O)c1cccc(Oc2cccc(-c3c(C(C)(C)C)nc4c(C(F)(F)F)cccn34)c2)c1 [Example 76, 2-tert-butyl-3-{3-[3-(ethylsulfonyl)phenoxy]phenyl}-8-(trifluoromethyl)imidazo[1,2-a]pyridine]
Human LXRβ
  IC50: 5.6 nM
Human LXRα
  IC50: 135 nM

## CC(C)S(=O)(=O)c1cccc(Oc2cccc(-c3c(C(C)(C)C)nc4c(C(F)(F)F)cccn34)c2)c1 [Example 77, 2-tert-butyl-3-{3-[3-(isopropylsulfonyl)phenoxy]phenyl}-8-(trifluoromethyl)imidazo[1,2-a]pyridine]
Human LXRβ
  IC50: 6.1 nM
Human LXRα
  IC50: 160 nM

## CC(C)S(=O)(=O)c1cccc(Oc2cccc(-c3c(C(C)(C)C)nc4c(C#N)cccn34)c2)c1 [Example 80, 2-tert-butyl-3-{3-[3-(isopropylsulfonyl)phenoxy]phenyl}imidazo[1,2-a]pyridine-8-carbonitrile]
Human LXRβ
  IC50: 16.3 nM
Human LXRα
  IC50: 526 nM

## CC(C)(C)c1nc2c(C#N)cccn2c1-c1cccc(Oc2cccc(S(=O)(=O)CCCO)c2)c1 [Example 81, 2-tert-butyl-3-(3-{3-[(3-hydroxypropyl)sulfonyl]phenoxy}phenyl)imidazo[1,2-a]pyridine-8-carbonitrile]
Human LXRβ
  IC50: 152 nM
Human LXRα
  IC50: 2390 nM

## CS(=O)(=O)c1cccc(Oc2cccc(-c3c(Cl)nc4c(C(F)(F)F)cccn34)c2)c1 [Example 85, 2-chloro-3-{3-[3-(methylsulfonyl)phenoxy]phenyl}-8-(trifluoromethyl)imidazo[1,2-a]pyridine]
Human LXRβ
  IC50: 83 nM
Human LXRα
  IC50: 2750 nM

## CCc1nc2c(C(F)(F)F)cccn2c1-c1cccc(Oc2cccc(S(C)(=O)=O)c2)n1 [Example 88, 2-ethyl-3-{6-[3-(methylsulfonyl)phenoxy]pyridin-2-yl}-8-(trifluoromethyl)imidazo[1,2-a]pyridine]
Human LXRβ
  IC50: > 1000 nM
Human LXRα
  IC50: > 1000 nM

## CC(C)c1nc2c(C(F)(F)F)cccn2c1-c1cccc(Oc2cccc(S(C)(=O)=O)c2)n1 [Example 89, 2-isopropyl-3-{6-[3-(methylsulfonyl)phenoxy]pyridin-2-yl}-8-(trifluoromethyl)imidazo[1,2-a]pyridine]
Human LXRβ
  IC50: > 1000 nM
Human LXRα
  IC50: > 1000 nM

## CCc1nc2c(C(F)(F)F)cccn2c1-c1ccc(-c2ccc(S(=O)(=O)C(C)C)cc2)cc1 [Example 92, 2-ethyl-3-(4′-(isopropylsulfonyl)biphenyl-4-yl)-8-(trifluoromethyl)imidazo[1,2-a]pyridine]
Human LXRβ
  IC50: 1590 nM
Human LXRα
  IC50: > 1000 nM

## CCc1nc2c(C(F)(F)F)cccn2c1-c1ccc(-c2ccc(S(C)(=O)=O)cc2)cc1 [Example 93, 2-ethyl-3-(4′-(methylsulfonyl)biphenyl-4-yl)-8-(trifluoromethyl)imidazo[1,2-a]pyridine]
Human LXRβ
  IC50: 4080 nM
Human LXRα
  IC50: > 1000 nM

## CC(C)c1nc2c(C(F)(F)F)cccn2c1-c1ccc(-c2ccc(S(C)(=O)=O)cc2)cc1 [Example 94, 2-isopropyl-3-(4′-(methylsulfonyl)biphenyl-4-yl)-8-(trifluoromethyl)imidazo[1,2-a]pyridine]
Human LXRβ
  IC50: > 1000 nM
Human LXRα
  IC50: > 1000 nM

## CCc1nc2c(C(F)(F)F)cccn2c1-c1ccc(-c2cccc(S(C)(=O)=O)c2)cc1 [Example 95, 2-ethyl-3-(3′-(methylsulfonyl)biphenyl-4-yl)-8-(trifluoromethyl)imidazo[1,2-a]pyridine]
Human LXRβ
  IC50: 135 nM
Human LXRα
  IC50: 2640 nM

## CC(C)c1nc2c(Cl)cccn2c1-c1cccc(Oc2ccc(S(N)(=O)=O)cc2)c1 [Example 99, 4-[3-(8-chloro-2-isopropylimidazo[1,2-a]pyridin-3-yl)phenoxy]benzenesulfonamide]
Human LXRβ
  IC50: > 1000 nM
Human LXRα
  IC50: > 1000 nM

## CCc1nc2c(C(F)(F)F)cccn2c1-c1ccc(Cc2cccc(S(C)(=O)=O)c2)cc1 [Example 101, 2-ethyl-3-{4-[3-(methylsulfonyl)benzyl]phenyl}-8-(trifluoromethyl)imidazo[1,2-a]pyridine]
Human LXRβ
  IC50: > 1000 nM
Human LXRα
  IC50: > 1000 nM

## CCc1nc2c(C(F)(F)F)cccn2c1-c1ccc(Oc2cccc(S(C)(=O)=O)c2)cc1 [Example 102, 2-ethyl-3-{4-[3-(methylsulfonyl)phenoxy]phenyl}-8-(trifluoromethyl)imidazo[1,2-a]pyridine]
Human LXRβ
  IC50: 336 nM
Human LXRα
  IC50: > 1000 nM

## CCc1nc2c(Cl)cccn2c1-c1ccc(Oc2cccc(S(C)(=O)=O)c2)cc1 [Example 103, 8-chloro-2-ethyl-3-{4-[3-(methylsulfonyl)phenoxy]phenyl}imidazo[1,2-a]pyridine]
Human LXRβ
  IC50: 417 nM
Human LXRα
  IC50: > 1000 nM

## CCc1nc2c(C(F)(F)F)cccn2c1-c1ccc(Oc2cccc(S(=O)(=O)CC)c2)cc1 [Example 105, 2-ethyl-3-{4-[3-(ethylsulfonyl)phenoxy]phenyl}-8-(trifluoromethyl)imidazo[1,2-a]pyridine]
Human LXRβ
  IC50: 230 nM
Human LXRα
  IC50: > 1000 nM

## CCc1nc2c(Cl)cccn2c1-c1ccc(Oc2cccc(S(=O)(=O)CC)c2)cc1 [Example 106, 8-chloro-2-ethyl-3-{4-[3-(ethylsulfonyl)phenoxy]phenyl}imidazo[1,2-a]pyridine]
Human LXRβ
  IC50: 430 nM
Human LXRα
  IC50: > 1000 nM

## CCc1nc2c(Cl)cccn2c1-c1cccc(COc2cccc(S(C)(=O)=O)c2)c1 [Example 109, 8-chloro-2-ethyl-3-(3-{[3-(methylsulfonyl)phenoxy]methyl}phenyl)imidazo[1,2-a]pyridine]
Human LXRβ
  IC50: 268 nM
Human LXRα
  IC50: > 1000 nM

## CCc1nc2c(C(F)(F)F)cccn2c1-c1ccc(COc2cccc(S(C)(=O)=O)c2)cc1 [Example 111, 2-ethyl-3-(4-{[3-(methylsulfonyl)phenoxy]methyl}phenyl)-8-(trifluoromethyl)imidazo[1,2-a]pyridine]
Human LXRβ
  IC50: > 1000 nM
Human LXRα
  IC50: > 1000 nM
